Laboratory results reported in patent publication US6005007A, “Retinoids, methods for their production and use” (priority 1997, dated 1999).

Tests used:
ME 180 = assay: Incorporation of 3H-thymidine, ME 180; format: cell-based; details: Homo sapiens, ME-180; 96 hours incubation, then 6 hours 3H-thymidine; read-out: TdR IC50 ME 180
AML-193 = assay: Incorporation of 3H-thymidine, AML-193; details: Homo sapiens, read-out: TdR IC50 AML-193 (nM)
RPMI 8226 = assay: Incorporation of 3H-thymidine, RPMI 8226; format: cell-based; details: Homo sapiens, 96 hours incubation, then 6 hours 3H-thymidine, read-out: TdR IC50 RPMI 8226
RXRβ = target: T1, RXRβ (Mus musculus, UniProt P28704); assay: Co-transfection assay, RXRβ agonist activity; format: cell-based; details: CV-1 cells, luciferase reporter, read-out: RXRβ Pot
T1 sequence (P28704 1-520): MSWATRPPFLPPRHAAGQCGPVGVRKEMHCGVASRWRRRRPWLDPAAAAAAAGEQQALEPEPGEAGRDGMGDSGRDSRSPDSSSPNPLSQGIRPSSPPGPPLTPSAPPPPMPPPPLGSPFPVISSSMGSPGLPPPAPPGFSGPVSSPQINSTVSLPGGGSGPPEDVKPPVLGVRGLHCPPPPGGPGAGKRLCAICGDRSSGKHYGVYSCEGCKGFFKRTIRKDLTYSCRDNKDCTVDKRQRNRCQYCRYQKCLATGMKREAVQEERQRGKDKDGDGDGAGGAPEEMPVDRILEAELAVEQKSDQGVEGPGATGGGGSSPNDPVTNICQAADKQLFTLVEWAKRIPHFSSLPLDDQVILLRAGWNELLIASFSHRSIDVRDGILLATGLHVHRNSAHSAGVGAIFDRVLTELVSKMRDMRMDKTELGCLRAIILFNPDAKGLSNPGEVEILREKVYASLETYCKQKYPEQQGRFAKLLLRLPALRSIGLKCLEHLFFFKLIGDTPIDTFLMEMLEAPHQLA

RAR receptors = assay: Co-transfection assay, RAR subfamily (summary in words); format: cell-based; details: CV-1 cells
Experimental: Utilizing the "cis-trans" or "co-transfection" assay described by Evans et al., Science, 240:889-95 (May 13, 1988), the disclosure of which is herein incorporated by reference, the retinoid compounds of the present invention were tested and found to have strong, specific activity as either selective RXR agonists, or as pan-agonist activators of both RAR and RXR receptors. This assay is described in further detail in U.S. Pat. Nos. 4,981,784 and 5,071,773, the disclosures of which are incorporated herein by reference.
In the co-transfection assay, a cloned cDNA for an IR (e.g., human RARα, RARβ, RXRγ) under the control of a constitutive promoter (e.g., the SV 40 promoter) is introduced by transfection (a procedure to induce cells to take up foreign genes) into a background cell substantially devoid of endogenous IRs. This introduced gene directs the recipient cells to make the IR protein of interest. A second gene is also introduced (co-transfected) into the same cells in conjunction with the IR gene. […]
The co-transfection assay can detect small molecule agonists or antagonists of target IRs. […] This activity can be conveniently measured, e.g., by increasing luciferase production, which reflects compound-dependent, IR-mediated increases in reporter transcription. […]

IC50 (ME 180) [nM] | IC50 (AML-193) [nM] | IC50 (RPMI 8226) [nM] | EC50 (RXRβ) [nM] | activity for the RAR receptors (RAR receptors) | SMILES
0.9 | < 0.1 | < 0.1 | 6 |  | CC(/C=C/CC1(c2ccc3c(c2)C(C)(C)CCC3(C)C)CC1)=C\C(=O)O [Compound 101, (2E, 4E)-6-[1-(5,5,8,8-Tetramethyl-5,6,7,8-tetrahydronaphtha-len-2-yl)cyclopropanyl]-3-methyl hexadienoic acid]
 |  |  | 22 | no activity at all | CC(/C=C/CC1(c2cc(C(C)(C)C)cc3c2CCC3(C)C)CC1)=C\C(=O)O [Compound 107, (2E, 4E)-6-[1-(6-t-butyl-1,1-dimethyl-indan-4-yl)-cyclopropyl]-3-methyl hexadienoic acid]
 |  |  |  | no activity at all | CC(/C=C/CC1(c2ccc3c(c2)C(C)(C)CCC3(C)C)CCCC1)=C\C(=O)O [Compound 108, (2E, 4E)-6-[(5,5,8,8-Tetramethyl-5,6,7,8-tetrahydronaphtha-len-2-yl)cyclopentane-1-yl]-3-methyl hexadienoic acid]
